Data: PubChem BioAssay (NCI)
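Protocol summary: plate cells (96-well), add compound at 5 concentrations, incubate 48 h, interpolate endpoints linearly. TGI denotes the concentration required for complete inhibition of growth.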

How the values were obtained:
Experiment in all cases: DTP human tumour cell line panel, 48 h
786-0 renal = test system: 786-0 renal
HCT-116 colon = test system: HCT-116 colon
SF-295 CNS = test system: SF-295 CNS
K-562 leukemia = test system: K-562 leukemia
TK-10 renal = test system: TK-10 renal
SNB-19 CNS = test system: SNB-19 CNS
T-47D breast = test system: T-47D breast
PC-3 prostate = test system: PC-3 prostate
RPMI-8226 leukemia = test system: RPMI-8226 leukemia
SK-OV-3 ovarian = test system: SK-OV-3 ovarian

Structure (SMILES)	TGI (786-0 renal) [µM]	TGI (HCT-116 colon) [µM]	TGI (SF-295 CNS) [µM]	TGI (K-562 leukemia) [µM]	TGI (TK-10 renal) [µM]	TGI (SNB-19 CNS) [µM]	TGI (T-47D breast) [µM]	TGI (PC-3 prostate) [µM]	TGI (RPMI-8226 leukemia) [µM]	TGI (SK-OV-3 ovarian) [µM]
COc1cc(OCc2nc3cc(C(F)(F)F)ccc3nc2-c2ccccc2)cc(OC)c1OC	> 100	> 100	> 100	> 100	> 100	> 100	> 100	> 100	> 100	> 100
Cc1nc(N)sc1C(=O)Nc1ncn[nH]1	> 100	> 100	> 100	> 100	> 100	> 100	> 100	> 100	> 100	> 100
COC(=O)CCCC1(CCCC(=O)OC)CCCCCCCCC(CCCC(=O)OC)(CCCC(=O)OC)C(=O)C1=O	33.5	> 100	> 100	37.8	> 100	> 100	> 100	53.5	> 100	> 100
CC(C)NCC(O)c1ccc(O)c2ncccc12 (stereo not given)	> 100	87.7	> 100	> 100	> 100	> 100	> 100	> 100	> 100	> 100
C[C@@H](NC(=O)[C@@H]1C[C@]1(C)CO)c1cccc2ccccc12	> 100	> 100	> 100	> 100	> 100	> 100	> 100	> 100	> 100	> 100
Nc1nc2c(c(-c3ccccc3Cl)n1)COC/C2=C\c1ccccc1Cl	33.1	30.7	27.7	32	31.9	29.8	44.8	27.4	35.2	30
COC(=O)c1ccccc1NC(=S)NN(C)C	> 100	> 100	> 100	> 100	> 100	> 100	> 100	> 100	> 100	> 100
N/C(=N\S(=O)(=O)c1ccc(-c2ccccn2)s1)Nc1ccc(Cl)cc1	29.4	31	40.3	66.2	32.1	31.5	45.6	27.3	84.5	47.9
O=C(/C=C/c1ccc(OCc2ccccc2)cc1)NCc1ccc(C(=O)NCc2ccccc2)cc1	> 100	> 100	> 100	> 100	> 100	> 100	> 100	> 100	> 100	> 100
N#C/C=c1/c2ccccc2n2nc3ccccc3c12	19.8	12.1	> 100	> 100	30.5	40	> 100	> 100	> 100	22.9
CC(=O)NNc1nc(C)c(C(/C=C/c2ccc([N+](=O)[O-])cc2)=N/NC(N)=O)s1	> 100	> 100	> 100	> 100	> 100	> 100	> 100	> 100	> 100	> 100
COCCOC(C)C(=O)C(O)S(=O)(=O)O (stereo not given)	> 100	> 100	> 100	> 100	> 100	> 100	> 100	> 100	> 100	> 100
Clc1ccc2nc3n[nH]c(Cl)c3nc2c1	> 100	> 100	> 100	> 100	> 100	> 100	> 100	> 100	> 100	> 100
Nc1ncnc2c1ncn2C1OC(CO)C(O)C1NS(=O)(=O)c1ccccc1 (stereo not given)	> 100	> 100	> 100	> 100	> 100	> 100	> 100	> 100	> 100	> 100
